# Assays:
# [1] = test system: C57Bl/6J mice fed with the HFD; test: Diet-Induced-Obesity (DIO) model: body weight, fat and organ weights of HFD-fed mice; type: in vivo
# From the text: (§1) Cells, reagents, antibodies, primers. CTPI-2 was purchased from Enamine Ltd. (Monmouth Jct, N.J.). The anti-SLC25A1 antibody used in immunoblots was either from Santa Cruz Biotech (Dallas, Tex.), (#sc-86392), employed at 1:1000 dilution, or from Proteintech (15235-1-AP, Rosemont, Ill.), employed at 1:1000 dilution. Mice and diets. For the majority of the experiments (except for experiments harboring genetic alterations of the Slc25a1 gene), DIO C57BL/6J mice were purchased from Jackson Laboratory (Bar Harbor, Me.) between 4-6 weeks of age. Mice were acclimated in the Georgetown University animal facility for at least one week. At the indicated times, mice were randomized to a standard laboratory chow diet (Labdiet #5053, St. Louis, Mo.) or the high fat diet (Researchdiets D12492, New Brunswick, N.J.), with 60% calories derived from fat (lard), and 20% from sucrose. During the course of the experiments, mice were housed at one mouse per cage and food consumption was measured regularly. Animals were maintained in a normal light-cycle and provided with water ad libitum. CTPI-2 treatment. CTPI-2 was administered at 50 mg/kg via intra-peritoneal injection on alternate days. CTPI-2 was diluted either in DMSO (at 0.2% final concentration) using DMSO as vehicle control, or in 0.47% Sodium Bicarbonate (NaCO3) at a final concentration of 14 mM. NaCO3 (0.47%) served as vehicle control. Immunoblot of murine tissues. Frozen tissue samples were homogenized in radioimmunoprecipitation (RIPA) buffer with protease inhibitor cocktails. Protein quantification was done by using a Coomassie (Bradford) Protein Assay Kit (Pierce, Waltham Mass.). Equal amount of protein lysate was loaded and separated by Novex™ 4-20% Tris-Glycine Mini Gel (Invitrogen, Carlsbad, Calif.), then transferred to a PVDF membrane. Appropriate horseradish peroxidase-conjugated secondary antibody (Invitrogen) was applied after incubation with primary antibody. SuperSignal™ West Pico PLUS Chemiluminescent Substrate (Thermo Fisher Scientific, Waltham, Mass.) was used for protein detection. SLC25a1 strains. The original Slc25a1 tm1a strain was purchased from the Mutant Mouse Resource and Research Center (MMRRC, Chapel Hill, N.C.) (C57BL/6N-Slc25a1^tm1a(EUCOMM)Wtsi, RRID: MMRRC_042258-UCD). The Tg(Alb-cre)21M (Alb-Cre) mice were purchased from Jackson Laboratory (#003574). Slc25a1^+/−, Slc25a1^fl/fl and Alb/Cre mice were genotyped by conventional PCR with genomic DNA extracted from the mouse tail biopsies. Agarose gel electrophoresis was used for analysis of PCR product analysis. The PCR conditions used were as follows: 95° C. for 4 minutes, followed by 40 cycles (95° C. for 30 seconds, 65° C. for 30 seconds, and 72° C. for 50 seconds), 72° C. for 2 min then kept in 4° C. before used. Histological Analysis. Assessment of steatosis was performed on paraffin embedded H&E stained sections derived from 3-6 animals and on multiple images for each animal. The steatosis grade was scored according to the degree of liver involvement with 0, <5%; 1, 5% to 33%; 2, 33% to 50%; and 3, >50%. Alternatively, the percentage of steatosis per area was calculated with ImageJ program. Lypidomic analysis. Targeted quantitation of triglycerides was performed using multiple reaction monitoring mass spectrometry. The samples were resolved on an CORTECS T3 2.7 μm, 2.1×30 mm column online with a triple quadrupole mass spectrometer (Xevo-TQ-S, Waters Corporation, Milford, Mass.) operating in the multiple reaction monitoring (MRM) mode. Signal intensities from all MRM Q1/Q3 ion pairs for triglycerides were ranked to ensure selection of the most intense precursor and fragment ion pair for MRM-based quantitation. […] The LC and MRM method used here for the study was developed by Waters Corporation. The metabolite ratios were calculated by normalizing the peak area of endogenous metabolites within tissue samples normalized to the internal standard. Processed data was normalized with respect to tissue weight taken for analysis. […]
# [2] = test system: mice fed with a normal diet; test: Body weight of mice fed control (normal) diet and treated with CTPI-2; type: in vivo; conditions: CTPI-2 for 5 months
# From the text: Cells, reagents, antibodies, primers. CTPI-2 was purchased from Enamine Ltd. (Monmouth Jct, N.J.). The anti-SLC25A1 antibody used in immunoblots was either from Santa Cruz Biotech (Dallas, Tex.), (#sc-86392), employed at 1:1000 dilution, or from Proteintech (15235-1-AP, Rosemont, Ill.), employed at 1:1000 dilution. Mice and diets. For the majority of the experiments (except for experiments harboring genetic alterations of the Slc25a1 gene), DIO C57BL/6J mice were purchased from Jackson Laboratory (Bar Harbor, Me.) between 4-6 weeks of age. Mice were acclimated in the Georgetown University animal facility for at least one week. […] During the course of the experiments, mice were housed at one mouse per cage and food consumption was measured regularly. […] Protein quantification was done by using a Coomassie (Bradford) Protein Assay Kit (Pierce, Waltham Mass.). […] The steatosis grade was scored according to the degree of liver involvement with 0, <5%; 1, 5% to 33%; 2, 33% to 50%; and 3, >50%. Alternatively, the percentage of steatosis per area was calculated with ImageJ program. […] Targeted quantitation of triglycerides was performed using multiple reaction monitoring mass spectrometry. […] Signal intensities from all MRM Q1/Q3 ion pairs for triglycerides were ranked to ensure selection of the most intense precursor and fragment ion pair for MRM-based quantitation. […]
# liver of HFD-fed mice = test: Liver steatosis / steatohepatitis histology and serum chemistry in HFD-fed mice (time course); type: in vivo, mouse
# From the text: as §1
# HFD-fed mice [3] = test: Glucose homeostasis in HFD-fed mice (fasting glucose, GTT, ITT); type: in vivo, mouse
# From the text: (§2) Cells, reagents, antibodies, primers. CTPI-2 was purchased from Enamine Ltd. (Monmouth Jct, N.J.). The anti-SLC25A1 antibody used in immunoblots was either from Santa Cruz Biotech (Dallas, Tex.), (#sc-86392), employed at 1:1000 dilution, or from Proteintech (15235-1-AP, Rosemont, Ill.), employed at 1:1000 dilution. Mice and diets. For the majority of the experiments (except for experiments harboring genetic alterations of the Slc25a1 gene), DIO C57BL/6J mice were purchased from Jackson Laboratory (Bar Harbor, Me.) between 4-6 weeks of age. Mice were acclimated in the Georgetown University animal facility for at least one week. At the indicated times, mice were randomized to a standard laboratory chow diet (Labdiet #5053, St. Louis, Mo.) or the high fat diet (Researchdiets D12492, New Brunswick, N.J.), with 60% calories derived from fat (lard), and 20% from sucrose. During the course of the experiments, mice were housed at one mouse per cage and food consumption was measured regularly. Animals were maintained in a normal light-cycle and provided with water ad libitum. CTPI-2 treatment. CTPI-2 was administered at 50 mg/kg via intra-peritoneal injection on alternate days. […] Protein quantification was done by using a Coomassie (Bradford) Protein Assay Kit (Pierce, Waltham Mass.). […] The steatosis grade was scored according to the degree of liver involvement with 0, <5%; 1, 5% to 33%; 2, 33% to 50%; and 3, >50%. Alternatively, the percentage of steatosis per area was calculated with ImageJ program. […] Targeted quantitation of triglycerides was performed using multiple reaction monitoring mass spectrometry. […] Signal intensities from all MRM Q1/Q3 ion pairs for triglycerides were ranked to ensure selection of the most intense precursor and fragment ion pair for MRM-based quantitation. […] The metabolite ratios were calculated by normalizing the peak area of endogenous metabolites within tissue samples normalized to the internal standard. […]
# SLC25A1 = test: Immunoblot of SLC25A1 protein in tissues of HFD-fed mice; type: in vivo, mouse
# From the text: as §2
# HFD-fed mice [4] = test: Inflammation and fibrosis in HFD-fed mice (serum interleukins, macrophage IHC, RT-PCR, Picro-Sirius Red); type: in vivo, mouse; conditions: HFD-fed mice
# From the text: as §1
# [5] = HFD-fed mice, CTPI-2 50 mg/kg i.p. alternate days
# [6] = time course of CTPI-2 treatment
structure (smiles),measurement,setting,value
O=C(O)c1ccccc1NS(=O)(=O)c1ccc(Cl)c([N+](=O)[O-])c1 [CTPI-2],feeding behavior (daily food consumption),"[1]; C57BL/6J mice, CTPI-2 50 mg/kg i.p. on alternate days",did not modify feeding behavior
same,body weight gain,"[1]; HFD 6 months, CTPI-2 50 mg/kg i.p. alternate days, started after 12 weeks of HFD",largely prevented such weight gain
same,"WAT (visceral abdominal fat), also by MRI",[1]; [5],reducing the WAT
same,WAT weight (mass),[1]; [5],reducing their mass
same,liver weight (mass),[1]; [5],reducing their mass
same,"pale, enlarged liver phenotype (visual examination)",[1]; [5],completely reverted this phenotype
same,body weights,[2],did not modify body weights
same,prevention of liver steatosis relative to Cre/Alb+:Slc25a1−/− mice,liver of HFD-fed mice; HFD conditions,more effectively prevented liver steatosis
same,alanine aminotransferase (ALT) levels,liver of HFD-fed mice; [5],normalized
same,total serum cholesterol levels,liver of HFD-fed mice; [5],normalized
same,serum triglyceride levels,"liver of HFD-fed mice; HFD-fed mice, CTPI-2 50 mg/kg i.p. alternate days, LC-MS",normalized
same,evolution to steatohepatitis,"liver of HFD-fed mice; HFD-fed mice, CTPI-2 started after 3 months HFD",prevented the evolution to steatohepatitis
same,liver steatosis,"liver of HFD-fed mice; HFD-fed mice, CTPI-2 started after 3 months HFD, 4, 8, 12 weeks treatment",nearly completely reversed liver steatosis
same,liver histology compared with normal-diet animals,"liver of HFD-fed mice; after 3 months of CTPI-2 and 6 months on the HFD, most treated mice",nearly indistinguishable from those of animals fed a normal diet
same,early stages of steatosis,liver of HFD-fed mice; steatosis present after 3 months HFD when CTPI-2 started,reverted these early stages of steatosis
same,basal fasting glucose levels,HFD-fed mice [3]; CTPI-2 50 mg/kg i.p. alternate days,reduced the basal fasting glucose levels
same,glucose tolerance test (GTT),HFD-fed mice [3]; [6],complete time-dependent normalization
same,insulin tolerance test (ITT),HFD-fed mice [3]; [6],complete time-dependent normalization
same,SLC25A1 expression levels in the adipose tissue,SLC25A1,reduced SLC25A1 expression levels
same,SLC25A1 expression levels in the liver,SLC25A1,reduced SLC25A1 expression levels
same,SLC25A1 expression levels in the pancreas,SLC25A1,not in the pancreas
same,collagen in the liver (Picro-Sirius Red),HFD-fed mice [4],reduction of collagen in the liver
same,circulating serum IL-4,HFD-fed mice [4]; CTPI-2 vs vehicle,increasing
same,circulating serum IL-6,HFD-fed mice [4]; CTPI-2 vs vehicle,lowered
same,circulating serum IL-10,HFD-fed mice [4]; CTPI-2 vs vehicle,increasing
same,monocyte chemo-attractant protein-1 (MCP1),HFD-fed mice [4]; serum,reduced
same,monokine induced by interferon-γ (MIG),HFD-fed mice [4]; serum,reduced
same,adipose tissue macrophage infiltration organized in crown-like structures,HFD-fed mice [4]; IHC,completely resolved this phenotype
